According to US20060229250A1, “Ghrelin associated peptide and its uses” (priority 2005, published 2006):
Ends that are not written are not given here. * marks the point of attachment. Octanoyl = CCCCCCCC(=O)*

Tests used:
[1] = tested on: plasma membrane preparations of rat jejunum; assay: I125-obestatin radioligand binding to jejunal membranes; details: for competition for labeled obestatin binding: displacement of iodinated wild type obestatin, rat jejunal membranes
Description: Iodination of obestatin was performed using the lodogen (Pierce, Upland, Ind.) procedure. Mixtures of the peptide (20 μg) and 1 mCi [125I] Nal were transferred to precoated lodogen vials and incubated for 4 min. The 125I-labeled peptide was applied to a Sep-Pak C18 cartridge (Waters) before elution with 60% acetonitrile/0.1% TFA. For radioligand binding assays, rat jejunum or other tissues were washed with buffer A (20 mM Hepes, 5 mM EDTA, 1 mM dithiothreitol (DTT), 10 μM amidinophenylmethanesulfonyl fluoride, 5 mg/L leupeptin, 100 mM KCl, pH 7.5), cut into small pieces, and homogenized using a motorized homogenizer. The homogenates were centrifuged at 1,000 g for 5 min. and the supernatant was centrifuged at 300,000 g for 1 hour at 2° C. The pellets (crude membrane fractions) were resuspended with buffer A without KCl, quickly frozen under liquid nitrogen, and stored at −80° C. until use.
After incubation, the tubes were centrifuged for 10 min. at 10,000 g, and pellets were washed twice in ice-cold PBS before quantitation of radioactivity with a γ-spectrophotometer. Specific binding was calculated by subtracting nonspecific binding from total binding.

[2] = Food intake in mice after peptide injection; assay type: in vivo
Description: (§1) Analysis of gastrointestinal functions. Eight-week-old C57BL6 male mice were housed individually in a regulated environment. Before intraperitoneal treatment with different peptides, mice were deprived of food for 16 hours with free access to water. Food intake was measured by placing preweighed pellets in the cage and weighing uneaten pellets at 5 hours after treatment. For intracerebroventricular injection of different peptides, mice were deprived of food for 16 hours. Free-hand injections were performed at 2 hours after light onset and food intake monitored for 5 hours. To estimate gastric emptying responses, mice deprived of food for 16 hours were given food pellets for 90 min. before injection of different hormones or saline. After treatment, mice were deprived of food again and sacrificed 0.5, 1, and 2 hours later. The stomach was excised at the pylorus and cardia before weighing. Gastric emptying was calculated by subtracting the stomach weight of treated mice from those sacrificed at the time of peptide injection.

[3] = Body weight in adult male rats under long-term peptide treatment; assay type: in vivo; details: 1 μmol per kg body weight, three times daily
Description: The observed inhibition of jejunal contraction may trigger an afferent vagus signal to induce a central satiety response.

Gastric emptying in mice = assay type: in vivo; details: 1 μmol per kg body weight, 0.5, 1 and 2 hours after treatment
Description: as §1

jejunum muscle strips = assay: Isometric force measurement of jejunal muscle strips; details: in vitro; for contractile activity of jejunum muscle strips: isometric force, percent of maximal acetylcholine contraction
Description: Isometric force measurements. Strips of jejunal muscle (˜1 cm in length) were cut along the longitudinal axis of the circular muscle layer and the mucosa was removed to minimize contamination with endogenous peptides. Muscle strips were mounted to a TIS8105R (Kent Scientific Corporation, Torrington, Conn.) isometric strain gauge and immersed in a 5 ml organ bath maintained at 37° C. with oxygenated KRB [Krebs-Ringer phosphate buffer, consisting of 50 mM HEPES, 100 mM NaCl, 5 mM KCl, and 1 mM each of MgCl2, NaH2PO4, and CaCl2] as previously described. A resting force of 1.0 g was applied to intestinal muscles and a 1.5 hours equilibration period was allowed before testing of different peptides during a 5 min. period. After each test, muscle strips were washed with fresh KRB for 20 min. to allow full recovery of basal contractile activities. Maximal contraction was evaluated at the beginning and end of each experiment after treatment with 10 μM of acetylcholine chloride. Contractility data were digitized and stored in a computer using DAS Wizard™ (Measurement Computing, Middleboro, Mass.). The magnitude of contractile strength is expressed as percent of maximal contraction induced by acetylcholine.

[4] = tested on: cultured rat pituitary cells; assay: Growth hormone secretion by cultured anterior pituitary cells; assay type: cell-based; details: 1 hour incubation
Description: Pituitary cell cultures. Anterior pituitaries were removed from adult male Sprague-Dawley rats and dispersed with 0.3% collagenase, 0.1% hyaluronidase and DNase I (10 μg/ml). The cell suspension was centrifuged at 300 g for 5 min. and cells were washed twice before incubation in Dulbecco minimal essential medium (DMEM) containing 0.1% bovine serum albumin (BSA), penicillin (100 units/ml), streptomycin (100 μg/ml), fungizone (2.5 μg/ml), and 10% fetal calf serum. Cells were seeded onto poly-lysine-coated 24-well plates at a density of ˜3×10^5 cells/well. Cultures were kept in a humidified atmosphere of 5% CO2 and 95% air at 37° C. […] Media was removed for growth hormone measurement by an enzyme-linked immunosorbent assay.

[5] = intracerebroventricular treatment, 8 nmol per kg body weight, mice, monitored for 5 hours
[6] = intraperitoneal injection, adult male mice deprived of food for 16 hours, cumulative intake up to 5 hours

Substance	competition for labeled obestatin binding [1]	food intake [2, 5]	food intake [2, 6]	body weight [3]	contractile activity of jejunum muscle strips (jejunum muscle strips)	growth hormone secretion [4]	further results
FNAPFDVGIKLSGVLYQQHSQAL-NH2 [L15-obestatin]	potency similar to the wild type obestatin	–	–	–	–	–	–
FNAPFDVGIKLSGVQYQQHSQAL-NH2 [obestatin]	–	decreased food intake	suppressed food intake in a time- and dose-dependent manner	suppressed body-weight gain	decreased the contractile activity	did not increase GH secretion	gastric emptying activity (Gastric emptying in mice): sustained suppression of gastric emptying activity; effect on ghrelin-stimulated contractile activity of jejunum muscle strips (jejunum muscle strips; together with ghrelin): antagonized the stimulatory effect of ghrelin
FNAPFDVGIKLSGVQYQQHSQALG (human) [NA-obestatin]	–	–	less effective	–	–	–	–
I125-obestatin: obestatin iodinated with [125I] NaI by the Iodogen procedure	–	–	–	–	–	–	specific binding of I125-obestatin ([1]; saturation binding, crude plasma membrane fractions of rat jejunum): High affinity binding
MTII [reference compound]	–	anorexigenic effect	–	–	–	–	–
ghrelin: peptide of 28 amino acids, serine-3 n-octanoylated; endogenous GHSR ligand; purchased from Phoenix Pharmaceuticals (GSS(Octanoyl)FLSPEHQRVQQRKESKKPPAKLQPR; UniProt Q9UBU3 24-51, looked up) [reference compound]	does not compete	–	–	increased body weight	stimulatory effect	stimulated growth hormone secretion	–
